Laboratory results as given in patent publication US4753953A, “Pyridonecarboxylic acid derivatives and antibacterial pharmaceutical compositions thereof” (priority 1985, dated 1988).
≈ marks a conversion by molar mass, not a printed value. Like-named read-outs stand apart in the source and are kept apart here.

Assays:
[1] = system: K. pneumoniae 1-220S; assay: MIC, in vitro antibacterial activity (standard strains); type: cell-based, Klebsiella pneumoniae; details: Klebsiella pneumoniae, 1220S; 10^6 cells/ml; Gram -; read-out: MIC
[2] = system: B. fragilis 25285; assay: as above; type: cell-based, Bacteroides fragilis; details: Bacteroides fragilis, 25285; 10^6 cells/ml; Gram -; read-out: MIC
[3] = system: Streptococcus pyogenes (S-8); assay: as above; type: cell-based; details: Streptococcus pyogenes; 10^6 cells/ml; Gram +; read-out: MIC
[4] = system: C. perfringens KYA 13123; assay: microbe, parasite or virus in culture; type: cell-based; details: Clostridium perfringens, KYA13123
[5] = system: Veillonella parvula KYA 10790; assay: MIC, in vitro antibacterial activity (standard strains); type: cell-based; details: Veillonella parvula, KYA10790; 10^6 cells/ml; Gram -; read-out: MIC
[6] = system: E. faecalis IID 682; assay: as above; type: cell-based; details: Enterococcus faecalis, IID682; 10^6 cells/ml; Gram +; read-out: MIC
[7] = system: S. aureus IID 670 (Terajima); assay: as above; type: cell-based, Staphylococcus aureus; details: Staphylococcus aureus, IID670; 10^6 cells/ml; Gram +; read-out: MIC
[8] = system: Peptostreptococcus anaerobius KYA 27337; assay: as above; type: cell-based; details: Peptostreptococcus anaerobius, KYA27337; 10^6 cells/ml; Gram +; read-out: MIC
[9] = system: Citrobacter freundii IID 976; assay: as above; type: cell-based; details: Citrobacter freundii, IID976; 10^6 cells/ml; Gram -; read-out: MIC
[10] = system: E. coli ATCC 10536; assay: as above; type: cell-based, Escherichia coli; details: Escherichia coli, ATCC10536; 10^6 cells/ml; Gram -; read-out: MIC
[11] = system: B. fragilis 0558; assay: as above; type: cell-based, Bacteroides fragilis; details: Bacteroides fragilis, 0558; 10^6 cells/ml; Gram -; read-out: MIC
[12] = system: F. necrophorum S-45; assay: as above; type: cell-based; details: Fusobacterium necrophorum, S45; 10^6 cells/ml; Gram -; read-out: MIC
[13] = system: S. pneumoniae IID 552; assay: as above; type: cell-based; details: Streptococcus pneumoniae, IID552; 10^6 cells/ml; Gram +; read-out: MIC
[14] = system: B. thetaiotaomicron (0661); assay: as above; type: cell-based; details: Bacteroides thetaiotaomicron; 10^6 cells/ml; Gram -; read-out: MIC
[15] = system: E. coli ML 4707; assay: as above; type: cell-based, Escherichia coli; details: Escherichia coli, ML4707, 10^6 cells/ml; Gram -; Table 1; read-out: MIC
[16] = system: P. aeruginosa IFO 12689; assay: as above; type: cell-based, Pseudomonas aeruginosa; details: Pseudomonas aeruginosa, IFO12689; 10^6 cells/ml; Gram -; read-out: MIC
[17] = system: P. aeruginosa IID 1210; assay: as above; type: cell-based, Pseudomonas aeruginosa; details: Pseudomonas aeruginosa, IID1210; 10^6 cells/ml; Gram -; read-out: MIC
[18] = system: Clostridium difficile I-E; assay: as above; type: cell-based; details: Clostridioides difficile; 10^6 cells/ml; Gram +
[19] = system: Yersinia enterocolitica IID 981; assay: as above; type: cell-based; details: Yersinia enterocolitica, IID981; 10^6 cells/ml; Gram -; read-out: MIC
[20] = system: B. distasonis 8503; assay: as above; type: cell-based; details: Parabacteroides distasonis, 8503; 10^6 cells/ml; Gram -; read-out: MIC
[21] = system: P. cepacia GIFU 518; assay: as above; type: cell-based; details: Burkholderia cepacia, GIFU518
[22] = system: Morganella morganii IID 602; assay: as above; type: cell-based; details: Morganella morganii, IID602; 10^6 cells/ml; Gram -; read-out: MIC
[23] = system: Fusobacterium mortiferum 4249; assay: as above; type: cell-based; details: Fusobacterium mortiferum, 4249; 10^6 cells/ml; Gram -; read-out: MIC
[24] = system: Pst. micros UPI 5464-1; assay: as above; type: cell-based; details: Parvimonas micra, UPI54641; 10^6 cells/ml; Gram +; read-out: MIC
[25] = system: S. pyogenes IID 692; assay: as above; type: cell-based, Streptococcus pyogenes; details: Streptococcus pyogenes, IID692; 10^6 cells/ml; Gram +; read-out: MIC
[26] = system: Alcaligenes faecalis 0114002; assay: as above; type: cell-based; details: Alcaligenes faecalis, 0114002; 10^6 cells/ml; Gram -; read-out: MIC
[27] = system: S. aureus Smith; assay: as above; type: cell-based, Staphylococcus aureus; details: Staphylococcus aureus; 10^6 cells/ml; Gram +; read-out: MIC
[28] = system: Eubacterium lentum GAI 5242; assay: as above; type: cell-based; details: Eggerthella lenta, GAI5242; 10^6 cells/ml; Gram +; read-out: MIC
[29] = system: Peptococcus magnus KY 017; assay: as above; type: cell-based; details: Finegoldia magna, KY017; 10^6 cells/ml; Gram +; read-out: MIC
[30] = system: Enterobacter cloacae IID 977; assay: as above; type: cell-based; details: Enterobacter cloacae, IID977; 10^6 cells/ml; Gram -; read-out: MIC
[31] = system: Staphylococcus aureus 209 P; assay: as above; type: cell-based; details: Staphylococcus aureus, 209P; 10^6 cells/ml; Gram +; read-out: MIC
[32] = system: Salmonella enteritidis IID 604; assay: as above; type: cell-based; details: Salmonella enterica; 10^6 cells/ml; Gram -; read-out: MIC

| SMILES | MIC [1] [mg/L] | MIC [2] [mg/L] | MIC [3] [mg/L] | MIC [4] [mg/L] | MIC [5] [mg/L] | MIC [6] [mg/L] | MIC [7] [mg/L] | MIC [8] [mg/L] | MIC [9] [mg/L] | MIC [10] [mg/L] | MIC [11] [mg/L] | MIC [12] [mg/L] | MIC [13] [mg/L] | MIC [14] [mg/L] | MIC [15] [mg/L] | MIC [16] [mg/L] | MIC [17] [mg/L] | MIC [18] [mg/L] | MIC [19] [mg/L] | MIC [20] [mg/L] | other results |
| --- | --- | --- | --- | --- | --- | --- | --- | --- | --- | --- | --- | --- | --- | --- | --- | --- | --- | --- | --- | --- | --- |
| CNCC1CN(c2c(F)cc3c(=O)c(C(=O)O)cn(C4CC4)c3c2Cl)CC1C (centres unmarked) [Example 12, 8-Chloro-1-cyclopropyl-6-fluoro-1,4-dihydro-7-(3-methylaminomethyl-4-methyl-1-pyrrolidinyl)-4-oxo-3-quinolinecarboxylic acid] | 0.1 (≈ 0.245 µM) | 0.1 (≈ 0.245 µM) | 0.05 (≈ 0.123 µM) | 0.1 (≈ 0.245 µM) | 0.39 (≈ 0.956 µM) | 0.05 (≈ 0.123 µM) | 0.0125 (≈ 0.0306 µM) | 0.05 (≈ 0.123 µM) | 0.05 (≈ 0.123 µM) | 0.05 (≈ 0.123 µM) | 0.1 (≈ 0.245 µM) | 0.2 (≈ 0.49 µM) | 0.05 (≈ 0.123 µM) | 0.39 (≈ 0.956 µM) | 0.025 (≈ 0.0613 µM) | 1.56 (≈ 3.82 µM) | 1.56 (≈ 3.82 µM) | 0.2 | 0.1 (≈ 0.245 µM) | 0.39 (≈ 0.956 µM) | MIC ([21]; 10^6 cells/ml, Gram -, read-out: MIC): 0.78 mg/L (≈ 1.91 µM); MIC [22]: 0.2 mg/L (≈ 0.49 µM); MIC [23]: 0.2 mg/L (≈ 0.49 µM); MIC [24]: 0.39 mg/L (≈ 0.956 µM); MIC [25]: 0.05 mg/L (≈ 0.123 µM); MIC [26]: 0.39 mg/L (≈ 0.956 µM); MIC [27]: 0.05 mg/L (≈ 0.123 µM); MIC [28]: 0.2 mg/L (≈ 0.49 µM); MIC [29]: 0.05 mg/L (≈ 0.123 µM); MIC [30]: 0.2 mg/L (≈ 0.49 µM); MIC [31]: 0.05 mg/L (≈ 0.123 µM); MIC [32]: 0.1 mg/L (≈ 0.245 µM) |
| CNCC1CN(c2c(F)cc3c(=O)c(C(=O)O)cn(C4CC4)c3c2F)CC1C (centres unmarked) [Example 13, 1-Cyclopropyl-6,8-difluoro-1,4-dihydro-7-(3-methylaminomethyl-4-methyl-1-pyrrolidinyl)-4-oxo-3-quinolinecarboxylic acid] | 0.2 (≈ 0.511 µM) | 0.78 (≈ 1.99 µM) | 0.1 (≈ 0.255 µM) | 0.2 (≈ 0.511 µM) | 0.78 (≈ 1.99 µM) | 0.2 (≈ 0.511 µM) | 0.05 (≈ 0.128 µM) | 0.2 (≈ 0.511 µM) | 0.05 (≈ 0.128 µM) | 0.05 (≈ 0.128 µM) | 0.78 (≈ 1.99 µM) | 0.39 (≈ 0.996 µM) | 0.1 (≈ 0.255 µM) | 3.13 (≈ 8 µM) | 0.05 (≈ 0.128 µM) | 3.13 (≈ 8 µM) | 1.56 (≈ 3.99 µM) | 0.78 | 0.1 (≈ 0.255 µM) | 3.13 (≈ 8 µM) | MIC [21]: 0.78 mg/L (≈ 1.99 µM); MIC [22]: 0.2 mg/L (≈ 0.511 µM); MIC [23]: 0.39 mg/L (≈ 0.996 µM); MIC [24]: 0.78 mg/L (≈ 1.99 µM); MIC [25]: 0.2 mg/L (≈ 0.511 µM); MIC [26]: 0.78 mg/L (≈ 1.99 µM); MIC [27]: 0.05 mg/L (≈ 0.128 µM); MIC [28]: 0.78 mg/L (≈ 1.99 µM); MIC [29]: ≤ 0.05 mg/L; MIC [30]: 0.2 mg/L (≈ 0.511 µM); MIC [31]: 0.05 mg/L (≈ 0.128 µM); MIC [32]: 0.1 mg/L (≈ 0.255 µM) |
| CCNCC1CN(c2c(F)cc3c(=O)c(C(=O)O)cn(C4CC4)c3c2Cl)CC1C (centres unmarked) [Example 14, 8-Chloro-1-cyclopropyl-7-(3-ethylaminomethyl-4-methyl-1-pyrrolidinyl)-6-fluoro-1,4-dihydro-4-oxo-3-quinolinecarboxylic acid] | 0.2 (≈ 0.474 µM) | 0.05 (≈ 0.119 µM) | 0.05 (≈ 0.119 µM) | ≤ 0.05 | 0.39 (≈ 0.924 µM) | 0.05 (≈ 0.119 µM) | 0.0125 (≈ 0.0296 µM) | ≤ 0.05 | 0.1 (≈ 0.237 µM) | 0.025 (≈ 0.0593 µM) | ≤ 0.05 | 0.1 (≈ 0.237 µM) | 0.05 (≈ 0.119 µM) | 0.2 (≈ 0.474 µM) | 0.05 (≈ 0.119 µM) | 3.13 (≈ 7.42 µM) | 3.13 (≈ 7.42 µM) | 0.1 | 0.2 (≈ 0.474 µM) | 0.39 (≈ 0.924 µM) | MIC [21]: 0.78 mg/L (≈ 1.85 µM); MIC [22]: 0.2 mg/L (≈ 0.474 µM); MIC [23]: 0.2 mg/L (≈ 0.474 µM); MIC [24]: 0.39 mg/L (≈ 0.924 µM); MIC [25]: 0.05 mg/L (≈ 0.119 µM); MIC [26]: 0.78 mg/L (≈ 1.85 µM); MIC [27]: 0.0125 mg/L (≈ 0.0296 µM); MIC [28]: 0.2 mg/L (≈ 0.474 µM); MIC [29]: ≤ 0.05 mg/L; MIC [30]: 0.2 mg/L (≈ 0.474 µM); MIC [31]: 0.0125 mg/L (≈ 0.0296 µM); MIC [32]: 0.2 mg/L (≈ 0.474 µM) |
| CCNCC1CN(c2c(F)cc3c(=O)c(C(=O)O)cn(C4CC4)c3c2F)CC1C (centres unmarked) [Example 15, 1-Cyclopropyl-7-(3-ethylaminomethyl-4-methyl-1-pyrrolidinyl)-6,8-difluoro-1,4-dihydro-4-oxo-3-quinolinecarboxylic acid] | 0.2 (≈ 0.493 µM) | 0.39 (≈ 0.962 µM) | 0.1 (≈ 0.247 µM) | 0.1 (≈ 0.247 µM) | 0.78 (≈ 1.92 µM) | 0.1 (≈ 0.247 µM) | 0.05 (≈ 0.123 µM) | 0.2 (≈ 0.493 µM) | 0.1 (≈ 0.247 µM) | 0.05 (≈ 0.123 µM) | 0.39 (≈ 0.962 µM) | 0.39 (≈ 0.962 µM) | 0.1 (≈ 0.247 µM) | 1.56 (≈ 3.85 µM) | 0.05 (≈ 0.123 µM) | 3.13 (≈ 7.72 µM) | 3.13 (≈ 7.72 µM) | 0.78 | 0.2 (≈ 0.493 µM) | 3.13 (≈ 7.72 µM) | MIC [21]: 0.78 mg/L (≈ 1.92 µM); MIC [22]: 0.2 mg/L (≈ 0.493 µM); MIC [23]: 0.39 mg/L (≈ 0.962 µM); MIC [24]: 0.78 mg/L (≈ 1.92 µM); MIC [25]: 0.1 mg/L (≈ 0.247 µM); MIC [26]: 0.78 mg/L (≈ 1.92 µM); MIC [27]: 0.05 mg/L (≈ 0.123 µM); MIC [28]: 0.39 mg/L (≈ 0.962 µM); MIC [29]: ≤ 0.05 mg/L; MIC [30]: 0.2 mg/L (≈ 0.493 µM); MIC [31]: 0.05 mg/L (≈ 0.123 µM); MIC [32]: 0.2 mg/L (≈ 0.493 µM) |
